The values below come from patent US12692248B2, “Solid state forms of (S)-N-(3-(2-(((R)-1-hydroxypropan-2-yl)amino)-6-morpholinopyridin-4-yl)-4-methylphenyl)-3-(2,2,2-trifluoroethyl)pyrrolidine-1-carboxamide and salts thereof” (PIERRE FABRE MEDICAMENT, priority 2021, dated 2026).

In brackets after ≈: the same amount, converted by molar mass. Like-named read-outs stand apart in the source and are kept apart here.

Holding throughout (type): physicochemical
The nature of series [1]: Dynamic Vapor Sorption (DVS). The settings on record: for water uptake at 80% RH: 80% relative humidity. Here is the method:
Dynamic Vapor Sorption (DVS) Moisture sorption/desorption data was collected on a DVS Intrinsic PLUS (SMS, UK). The sample was placed into a tared sample chamber and automatically weighed. The sample was dried at 40° C./0%0 RH until the dm/dt was less than 0.00200 and cooled to 25° C. [table]

The nature of series [2]: Solubility of Compound 1 in solvents. Here is the method:
Compound 1 is insoluble in n-heptane and water (<1 mg/mL) and soluble (>100 mg/mL) in methanol, ethanol, acetone, tetrahydrofuran, methyl ethyl ketone, ethyl acetate, acetonitrile, isobutanol, isopropyl alcohol and isopropyl acetate. Compound 1 has a solubility of about 60 mg/mL in methyl t-butyl ether.

Series [3] in a line: Stability at 60° C. and 40° C. at 75% relative humidity for 9 days (UPLC purity, XRPD). To be noted: for Purity −3 d: 3 days; for Purity −9 d: 9 days; for XRPD: crystal form check. Here is the method:
Compound 1 and Compound 2 were evaluated for stability at 60° C. and 40° C. at 75% relative humidity for 9 days. At 0, 3, and 9 days, the samples were dissolved with diluent to prepare a solution for purity analysis by UPLC. Solid samples were also analyzed by XRPD to check the crystal form.

Series [4] can be described thus: Comparison dissolution trials in water and biorelevant media. The settings on record: for solubility at 0.5 h: read-out: Solubility (mg/mL) 0.5 h; for solubility at 2 h: read-out: Solubility (mg/mL) 2 h; for solubility at 24 h: read-out: Solubility (mg/mL) 24 h. As to the method:
Comparison dissolution trials were performed on Compounds 1 and 2. About 20 mg of each sample was weighed into a sample vial and then 4 mL of media was added to make a suspension. All suspensions were shaken at 37° C. with a rate of 200 rpm. […] He pH of the filtrate was measured, and the filter cake was analyzed by XRPD. […] In biorelevant dissolution media FaSSIF and FeSSIF, the solubility of the Compound 1 and Compound 2 were similar.

A short description of series [5]: Slurry experiments of amorphous hydrochloride. The settings on record: one day, XRPD. As to the method: An amorphous solid state form of (S)—N-(3-(2-(((R)-1-hydroxypropan-2-yl)amino)-6-morpholinopyridin-4-yl)-4-methylphenyl)-3-(2,2,2-trifluoroethyl)pyrrolidine-1-carboxamide hydrochloride is attainable. Amorphous (S)—N-(3-(2-(((R)-1-hydroxypropan-2-yl)amino)-6-morpholinopyridin-4-yl)-4-methylphenyl)-3-(2,2,2-trifluoroethyl)pyrrolidine-1-carboxamide hydrochloride was formed by rapid evaporation of 15 mg of Compound 2 dissolved in 0.5 mL of methanol. The solid was confirmed to be amorphous by XRPD. Slurry of amorphous (S)—N-(3-(2-(((R)-1-hydroxypropan-2-yl)amino)-6-morpholinopyridin-4-yl)-4-methylphenyl)-3-(2,2,2-trifluoroethyl)pyrrolidine-1-carboxamide hydrochloride in 0.5 mL of the solvents in Table 13 were prepared. Each suspension was stirred for one day at 50° C. and at RT. Each suspension was filtered and analyzed by XRPD. In each experiment, conversion from amorphous (S)—N-(3-(2-(((R)-1-hydroxypropan-2-yl)amino)-6-morpholinopyridin-4-yl)-4-methylphenyl)-3-(2,2,2-trifluoroethyl)pyrrolidine-1-carboxamide hydrochloride to crystalline Compound 2 was observed.

[6] abbreviates: simulated gastric fluid, thermodynamic from solid, SGF, 37° C.
Setting [7] is: thermodynamic from solid, FaSSIF, 37° C.
The mark [8] stands for this setting: thermodynamic from solid, FeSSIF, 37° C.
[9] abbreviates: thermodynamic from solid, Water, 37° C.

For `Cc1ccc(NC(=O)N2CC[C@@H](CC(F)(F)F)C2)cc1-c1cc(N[C@H](C)CO)nc(N2CCOCC2)c1` [Compound 1, (S)—N-(3-(2-(((R)-1-hydroxypropan-2-yl)amino)-6-morpholinopyridin-4-yl)-4-methylphenyl)-3-(2,2,2-trifluoroethyl)pyrrolidine-1-carboxamide], the hygroscopicity result in series [1] (DVS) is “slightly hygroscopic”. The “water uptake at 80% RH” value in series [1] (DVS, 25° C.) came to 2%. Further, in series [1] (after DVS testing), the “solid form after DVS testing” value is recorded as “remained amorphous”. For the same compound, the solubility was above 100000 µg/mL in series [2] (acetone, organic solvent or mixture); above 100000 µg/mL in series [2] (acetonitrile, organic solvent or mixture); above 100000 µg/mL in series [2] (ethanol, organic solvent or mixture); above 100000 µg/mL in series [2] (ethyl acetate, organic solvent or mixture); above 100000 µg/mL in series [2] (isobutanol, organic solvent or mixture); above 100000 µg/mL in series [2] (isopropyl acetate, organic solvent or mixture). Further, the solubility is above 100000 µg/mL in series [2] (isopropyl alcohol, organic solvent or mixture); above 100000 µg/mL in series [2] (methanol, organic solvent or mixture); above 100000 µg/mL in series [2] (methyl ethyl ketone, organic solvent or mixture); around 60000 µg/mL (≈ 115000 µM) in series [2] (methyl t-butyl ether, organic solvent or mixture); below 1000 µg/mL in series [2] (n-heptane, organic solvent or mixture); above 100000 µg/mL in series [2] (tetrahydrofuran, organic solvent or mixture). Also, the solubility was below 1000 µg/mL in series [2] (water) and below 9 µg/mL in series [4] (thermodynamic from solid, water, 37° C.). Also, in series [3] (0 days (initial), UPLC), the “Purity −0 d (Area %)” value is given as 99.43 Area %. Besides, the “Purity −3 d” value in series [3] (40° C./75% RH, UPLC) turned out to be 99.42 Area %; in series [3] (60° C., UPLC) it was 99.39 Area %. In addition, the “Purity −9 d” value stood at 99.40 Area % in series [3] (40° C./75% RH, UPLC) and 99.42 Area % in series [3] (60° C., UPLC). For the same compound, the XRPD result in series [3] (40° C./75% RH) and in series [3] (60° C.) was “No change” in each case. Further, the solid form conversion result in series [4] (FaSSGF, filter cake by XRPD) is listed as “converted to Compound 2”. Moreover, the “solubility of Compound 1 and Compound 2 compared” value in series [4] (FaSSIF and FeSSIF) was “similar”. Also, the “pH of the filtrate” value in series [4] (Water medium) is reported as “(pH 6.4)”. In addition, the solubility at 0.5 h in series [4] (setting [6]) is 0.48 mg/mL (≈ 920 µM); in series [4] (setting [7]) it was 0.024 mg/mL (≈ 46 µM); in series [4] (setting [8]), 0.15 mg/mL (≈ 288 µM); in series [4] (setting [9]), 0.004 mg/mL (≈ 7.67 µM). Besides, the solubility at 2 h was 0.35 mg/mL (≈ 671 µM) in series [4] (setting [6]), 0.022 mg/mL (≈ 42.2 µM) in series [4] (setting [7]), 0.17 mg/mL (≈ 326 µM) in series [4] (setting [8]) and 0.004 mg/mL (≈ 7.67 µM) in series [4] (setting [9]). For the same compound, the solubility at 24 h in series [4] (setting [6]) was 0.83 mg/mL (≈ 1590 µM); in series [4] (setting [7]), 0.018 mg/mL (≈ 34.5 µM); in series [4] (setting [8]), 0.15 mg/mL (≈ 288 µM); in series [4] (setting [9]) it was 0.009 mg/mL (≈ 17.3 µM).

For the compound `Br.Cc1ccc(NC(=O)N2CC[C@@H](CC(F)(F)F)C2)cc1-c1cc(N[C@H](C)CO)nc(N2CCOCC2)c1` [Compound 3, (S)—N-(3-(2-(((R)-1-hydroxypropan-2-yl)amino)-6-morpholinopyridin-4-yl)-4-methylphenyl)-3-(2,2,2-trifluoroethyl)pyrrolidine-1-carboxamide hydrobromide], the hygroscopicity result in series [1] (DVS) was “slightly hydroscopic”. For the same compound, the “water uptake at 80% RH” value in series [1] (DVS, 25° C.) worked out at 0.27%. Further, the “water uptake at 90% relative humidity” value in series [1] (DVS, 25° C., 90% relative humidity) was 0.45%.

Turning to `Cc1ccc(NC(=O)N2CC[C@@H](CC(F)(F)F)C2)cc1-c1cc(N[C@H](C)CO)nc(N2CCOCC2)c1.Cl` [amorphous Compound 2, (S)—N-(3-(2-(((R)-1-hydroxypropan-2-yl)amino)-6-morpholinopyridin-4-yl)-4-methylphenyl)-3-(2,2,2-trifluoroethyl)pyrrolidine-1-carboxamide hydrochloride], the “Resulting Solid State Form” value is reported as “Form I” in series [5] (slurry in Acetone, 50° C.); “Form I” in series [5] (slurry in Acetone, RT); “Form I” in series [5] (slurry in Ethanol, 50° C.); “Form I” in series [5] (slurry in Ethanol, RT); “Form I” in series [5] (slurry in Ethyl acetate, 50° C.); “Form I” in series [5] (slurry in Ethyl acetate, RT). Moreover, the “Resulting Solid State Form” value is on record as “Form I” in series [5] (slurry in Water, 50° C.); “Form I” in series [5] (slurry in Water, RT); “Form I” in series [5] (slurry in n-Heptane, 50° C.); “Form I” in series [5] (slurry in n-Heptane, RT).
